{"source": "patent US20230255954A1", "about": "“INTERLEUKIN 33 (IL-33) INHIBITION FOR TREATMENT OF CANCER, FIBROSIS AND INFLAMMATION” (The General Hospital Corporation, priority 2020, published 2023)", "key": {"[1]": {"system": "Pam212 cells", "assay": "Pam212 proliferation assay (CellTiter 96)", "type": "cell-based, mouse", "conditions": "10 μM SB431542 for 3 hours; to the same degree as knocking down IL-33", "protocol": "Pam212 cells were transfected with siIl33 (QIAGEN, catalog no. SI00870443) or siCon (QIAGEN, catalog no. 1022076) using Lipofectamine RNAiMax Transfection reagent (Thermo Fisher Scientific, catalog no. 13778075) according to the manufacturer's instructions. The following day, cells were divided into 96 well plates with a serial dilution of cells. The next day, the cells were treated with 5 nM of TGF-β (Cell Signaling Technology, catalog no. 5231LF) or 10 μM of SB431542 for 3 hours. After incubation, the proliferation assay was performed by CellTiter 96 Non-radioactive Cell proliferation assay (Promega, Madison, Wis., catalog no. G4001) according to the manufacturer's instructions. O.D was recorded as the measure of cell proliferation in each well. Absorbance (O.D) reading is directly proportional to the cell proliferation in each well."}, "[2]": {"system": "Pam212 cells", "assay": "Ki67+ proliferating Pam212 cells", "type": "cell-based, mouse"}, "[3]": {"system": "DNFB-treated WT and IL-33KO mice skin", "assay": "DNFB chronic skin inflammation with SB431542", "type": "in vivo, mouse", "conditions": "22 days", "protocol": "Four- to six-week-old male and female mice were shaved on their abdomen and sensitized to 50 μL 0.5% 1-Fluoro-2,4-dinitrobenzene (DNFB, Millipore Sigma, St. Louis, Mo., catalog no. 42085) dissolved in acetone plus olive oil at a 3:1 ratio (refer to as acetone). Two days after first sensitization, mice were re-sensitized to 50 μL 0.25% DNFB on their abdomen. After 5 days, mice were challenged with 100 μL 0.25% DNFB on their back skin, which was repeated three times per week for 22 days. The skin rash was monitored over the duration of the study.\n(§1) To inhibit the TGF-β/SMAD signaling pathway (Mordasky Markell et al, 2010), mice were treated with 10 μM SB431542 (Millipore Sigma, catalog no. 301836-41-9) in 200 μL acetone or 200 μL acetone alone to their back skin twice a week. SB431542/acetone treatments were given in between TPA or DNFB doses.\nTissue samples were collected and fixed in 4% paraformaldehyde (Millipore Sigma, catalog no. P6148) overnight at 4° C. Next, tissues were dehydrated in ethanol, processed and embedded in paraffin. 5 μm sections paraffin-embedded tissues were placed on slides, deparaffinized and stained with H&E. For immunohistochemistry, antigen retrieval was performed in 500 μL of antigen unmasking solution (VECTOR Laboratories, Burlingame, Calif., catalog no. H3300) diluted in 50 mL water using Cuisinart pressure cooker for 20 min at high pressure. Slides were washed three times for three minutes each in 1×TBS with 0.025% Triton X-100. Sections were blocked with 1% bovine serum albumin (Thermo Fisher Scientific, catalog no. BP1600) and 5% goat serum (Millipore Sigma, catalog no. G9023) for 1 hour. Slides were stained overnight at 4° C. with a primary antibody diluted in TBS containing 1% BSA (Table A). The following day, slides were washed as above and incubated in 100 μL biotinylated secondary antibody (VECTOR Laboratories, catalog no. PK-6200) for 30 min. After washing, slides were incubated with 100 μL mixture of reagent A and B from VECTASTAIN Elite ABC universal kit Peroxidase (VECTOR Laboratories, catalog no. PK-6200) for 30 min. After washing, slides were incubated with 100 μL ImmPACT DAB chromogen stating (VECTOR Laboratories, catalog no. SK-4105) for a few minutes. Finally, slides were dehydrated in ethanol and xylene and mounted with a coverslip using 3 drops of mounting media. For immunofluorescence staining, rehydrated tissue sections were permeated with 1×PBS supplemented with 0.2% Triton X-100 for 5 min. Antigen retrieval was performed similar to immunohistochemistry. Slides were washed three times for three minutes each in 1×PBS with 0.1% TWEEN20. […] The number of positive cells was counted in randomly selected high power field (HPF, 200× magnification) images in a blinded manner by a trained investigator. […]"}, "[4]": {"system": "DMBA/TPA skin tumors in WT and K14-IL33tg,ST2KO mice", "assay": "DMBA/TPA skin carcinogenesis protocol with SB431542", "type": "in vivo, mouse", "protocol": "For DMBA/DNFB carcinogenesis protocol (Ameri et al., 2019), four- to six-week-old male and female mice were shaved on their abdomen and sensitized to 50 μL 0.5% DNFB. Two days later, mice were re-sensitized to 50 μL 0.25% DNFB on the abdomen. Five days later, mice were treated with […] 7,12-dimethylbenz(a)anthracene (DMBA, Millipore Sigma, catalog no. D3254) in 200 μL acetone on their back skin. After a week, mice were challenged with 100 μL 0.25% DNFB on their back skin, which was continued three times per week for 30 weeks at the dosage that maintained mild erythematous dermatitis in WT mice. Skin rash and tumor development were monitored and recorded weekly over the duration of the study. For DMBA/TPA carcinogenesis protocol, mice were treated with 6 μg 12-O-tetradecanoylphorbol-13-acetate (TPA, Millipore Sigma, catalog no. P1585) in 200 μL acetone instead of DNFB in DMBA/DNFB protocol without abdominal sensitization.\nas §1\nTissue samples were collected and fixed in 4% paraformaldehyde (Millipore Sigma, catalog no. P6148) overnight at 4° C. Next, tissues were dehydrated in ethanol, processed and embedded in paraffin. 5 μm sections paraffin-embedded tissues were placed on slides, deparaffinized and stained with H&E. For immunohistochemistry, antigen retrieval was performed in 500 μL of antigen unmasking solution (VECTOR Laboratories, Burlingame, Calif., catalog no. H3300) diluted in 50 mL water using Cuisinart pressure cooker for 20 min at high pressure. Slides were washed three times for three minutes each in 1×TBS with 0.025% Triton X-100. Sections were blocked with 1% bovine serum albumin (Thermo Fisher Scientific, catalog no. BP1600) and 5% goat serum (Millipore Sigma, catalog no. G9023) for 1 hour. Slides were stained overnight at 4° C. with a primary antibody diluted in TBS containing 1% BSA (Table A). The following day, slides were washed as above and incubated in 100 μL biotinylated secondary antibody (VECTOR Laboratories, catalog no. PK-6200) for 30 min. After washing, slides were incubated with 100 μL mixture of reagent A and B from VECTASTAIN Elite ABC universal kit Peroxidase (VECTOR Laboratories, catalog no. PK-6200) for 30 min. After washing, slides were incubated with 100 μL ImmPACT DAB chromogen stating (VECTOR Laboratories, catalog no. SK-4105) for a few minutes. Finally, slides were dehydrated in ethanol and xylene and mounted with a coverslip using 3 drops of mounting media. For immunofluorescence staining, rehydrated tissue sections were permeated with 1×PBS supplemented with 0.2% Triton X-100 for 5 min. Antigen retrieval was performed similar to immunohistochemistry. Slides were washed three times for three minutes each in 1×PBS with 0.1% TWEEN20. Sections were blocked with 1% bovine serum albumin and 5% goat serum for 1 hour. The slides were stained overnight at 4° C. with primary antibodies (Table A). The following day, slides were washed as above and incubated for two hours at room temperature with secondary antibodies conjugated to fluorochromes (Table A). Next, slides were incubated with 1:2000 DAPI (Thermo Fisher Scientific, catalog no. D3571) for five minutes at room temperature, then washed as above. Slides were mounted with Prolong Gold Antifade Reagent (Thermo Fisher Scientific, catalog no. P36930). The number of positive cells was counted in randomly selected high power field (HPF, 200× magnification) images in a blinded manner by a trained investigator. Clinical samples were reviewed by a pathologist."}, "[5]": {"conditions": "DMBA/TPA-treated K14-IL33tg,ST2KO skin, vs acetone-treated controls"}, "[6]": {"conditions": "K14-IL33tg,ST2KO mice, DMBA/TPA, vs acetone-treated"}, "[7]": {"conditions": "WT mice, 30-week DMBA/TPA treatment"}}}
{"molecule": "NC(=O)c1ccc(-c2nc(-c3ccc4c(c3)OCO4)c(-c3ccccn3)[nH]2)cc1", "note": "[SB431542]", "values": [{"measurement": "Pam212 cell proliferation", "setting": "[1]", "value": "reduced"}, {"measurement": "Ki67+ proliferating cells", "setting": "[2]", "value": "significantly reduced"}, {"measurement": "epidermal hyperplasia", "setting": "[3]; DNFB-treated IL-33KO mice", "value": "no impact"}, {"measurement": "keratinocyte proliferation", "setting": "[3]; DNFB-treated IL-33KO mice", "value": "no impact"}, {"measurement": "keratinocyte proliferation", "setting": "[3]; DNFB-treated WT mice", "value": "markedly decreased"}, {"measurement": "epidermal hyperplasia", "setting": "[3]; DNFB-treated WT mice, 10 μM SB431542 in 200 μL acetone twice a week", "value": "markedly decreased"}, {"measurement": "apoptosis (cleaved caspase-3)", "setting": "[4]; DMBA/TPA-treated K14-IL33tg,ST2KO skin", "value": "without impacting"}, {"measurement": "number of Ki67+ epidermal keratinocytes", "setting": "[4]; [5]", "value": "reduced"}, {"measurement": "number of p-SMAD2/3+ epidermal keratinocytes", "setting": "[4]; [5]", "value": "reduced"}, {"measurement": "number of skin tumors", "setting": "[4]; [6]", "value": "significantly fewer"}, {"measurement": "tumor latency", "setting": "[4]; [6]", "value": "markedly increased"}, {"measurement": "skin tumor size", "setting": "[4]; K14-IL33tg,ST2KO mice, DMBA/TPA, vs controls", "value": "smaller"}, {"measurement": "endpoint tumor volumes", "setting": "[4]; [7]", "value": "no significant impact"}, {"measurement": "skin tumor onset", "setting": "[4]; [7]", "value": "no significant impact"}, {"measurement": "tumor numbers over time", "setting": "[4]; [7]", "value": "no significant impact"}]}
